Experimental data as given in publication PMC8566969, “Comparison of viral RNA–host protein interactomes across pathogenic RNA viruses informs rapid antiviral drug discovery for SARS-CoV-2” (Cell Research, 2021).
“Also recorded” adds a separate entry of the source.

Legend:
[1] = system: SARS-CoV-2 (IPBCAMS-YL01/2020); test: Antiviral assay, bona fide SARS-CoV-2 in Huh7.5.1 cells; type: cell-based; conditions: IPBCAMS-YL01/2020, human liver Huh7.5.1 cells
[2] = biological target: T1, HSP90AB1 (Homo sapiens, UniProt P08238); test: biochemical; type: binding
T1 construct: HSP90AB1 protein was detected using a specific antibody after the A549 cells were treated with Cepharanthine; endogenous in cells; host or cells: A549
T1 sequence (P08238 whole entry): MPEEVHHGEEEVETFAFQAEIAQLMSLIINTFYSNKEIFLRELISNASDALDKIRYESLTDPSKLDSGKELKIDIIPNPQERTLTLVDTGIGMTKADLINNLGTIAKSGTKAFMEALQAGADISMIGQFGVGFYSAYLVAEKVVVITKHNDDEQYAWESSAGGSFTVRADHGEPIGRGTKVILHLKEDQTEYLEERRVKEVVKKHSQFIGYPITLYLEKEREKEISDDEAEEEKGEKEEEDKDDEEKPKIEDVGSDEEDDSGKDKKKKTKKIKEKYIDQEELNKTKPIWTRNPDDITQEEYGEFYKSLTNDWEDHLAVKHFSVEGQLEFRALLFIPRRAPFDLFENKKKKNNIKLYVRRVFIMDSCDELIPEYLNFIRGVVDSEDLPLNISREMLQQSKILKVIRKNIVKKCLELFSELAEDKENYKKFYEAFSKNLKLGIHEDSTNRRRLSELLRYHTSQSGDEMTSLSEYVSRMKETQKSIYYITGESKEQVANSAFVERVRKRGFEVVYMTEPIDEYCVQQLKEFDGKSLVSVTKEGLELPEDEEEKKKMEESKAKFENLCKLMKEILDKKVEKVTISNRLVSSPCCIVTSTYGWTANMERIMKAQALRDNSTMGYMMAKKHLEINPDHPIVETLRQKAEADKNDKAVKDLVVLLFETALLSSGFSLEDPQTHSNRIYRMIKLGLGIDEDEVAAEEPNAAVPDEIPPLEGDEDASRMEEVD

[3] = Solubility in water (statement in formulation method)
[4] = system: ZIKV (MR766); test: Antiviral assay, ZIKV in Huh7 cells (4G2 immunostaining, high-content imaging); conditions: for SI (CC50/IC50), ZIKV: Huh7 cells; for IC50: Zika virus, Huh-7, 72 h, read-out: IC50, ZIKV
[5] = biological target: T1, HSP90AB1; type: cell-based
[6] = system: SARS-CoV-2; design: method as in PMID 32707573; conditions: at 2.5 μM; cited from earlier work
[7] = system: SARS-CoV-2 (IPBCAMS-YL01/2020); design: species or system hACE2 transgenic mice; conditions: mouse, in vivo
[8] = Cell viability assay (CellTiter-Glo), Huh7 cells; conditions: human
[9] = system: SARS-CoV-2 virus entry; conditions: read-out: IC50, antiviral activity in virus entry inhibitor screen; cited from earlier work
[10] = system: SARS-CoV-2 (IPBCAMS-YL01/2020); test: in vitro; conditions: human
[11] = system: SARS-CoV-2 (IPBCAMS-YL01/2020); test: microbe, parasite or virus in culture; conditions: Severe acute respiratory syndrome coronavirus 2, A549-ACE2, 48 h, read-out: IC50 (half maximal inhibitory concentration), SARS-CoV-2 IPBCAMS-YL01/2020
[12] = system: EBOVΔVP30-GFP virus (strain Zaire Mayinga); test: microbe, parasite or virus in culture; conditions: Zaire ebolavirus, 72 h, read-out: IC50, EBOVΔVP30-GFP
[13] = system: EBOVΔVP30-GFP virus (strain Zaire Mayinga)
[14] = in vitro; conditions: human
[15] = in vitro; conditions: human; remark: listed apart in the source
[16] = biological target: (GGCT); design: method as in IUPHAR/BPS Guide to PHARMACOLOGY, pubmed_id 17260973; conditions: assay_description: pKa= 9.71, ref IUPHAR/BPS Guide to PHARMACOLOGY, pubmed_id 17260973, cited from earlier work
[17] = system: TUBB cytoskeletal networks; test: Immunofluorescence of the TUBB-containing cytoskeleton in Caco-2 cells; type: cell-based, human; conditions: 0.5 µM, 6 h
[18] = biological target: TUBB (Homo sapiens, UniProt P07437); test: Cellular thermal shift assay (CETSA) in A549 cells, TUBB; type: cell-based
Sequence of TUBB (P07437 whole entry): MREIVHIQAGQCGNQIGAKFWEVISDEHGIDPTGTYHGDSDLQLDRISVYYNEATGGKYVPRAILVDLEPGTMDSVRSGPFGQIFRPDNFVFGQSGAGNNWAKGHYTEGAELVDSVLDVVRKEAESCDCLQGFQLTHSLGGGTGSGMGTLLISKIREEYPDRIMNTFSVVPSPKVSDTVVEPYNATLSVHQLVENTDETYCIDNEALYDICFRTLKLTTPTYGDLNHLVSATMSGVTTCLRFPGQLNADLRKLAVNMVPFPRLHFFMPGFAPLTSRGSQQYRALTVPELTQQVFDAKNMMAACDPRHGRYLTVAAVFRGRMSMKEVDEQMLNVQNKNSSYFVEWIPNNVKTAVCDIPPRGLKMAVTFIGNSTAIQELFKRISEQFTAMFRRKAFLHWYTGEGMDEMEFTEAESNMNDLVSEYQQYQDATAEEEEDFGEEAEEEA
Sequence of TUBB (P68363 whole entry, further chain): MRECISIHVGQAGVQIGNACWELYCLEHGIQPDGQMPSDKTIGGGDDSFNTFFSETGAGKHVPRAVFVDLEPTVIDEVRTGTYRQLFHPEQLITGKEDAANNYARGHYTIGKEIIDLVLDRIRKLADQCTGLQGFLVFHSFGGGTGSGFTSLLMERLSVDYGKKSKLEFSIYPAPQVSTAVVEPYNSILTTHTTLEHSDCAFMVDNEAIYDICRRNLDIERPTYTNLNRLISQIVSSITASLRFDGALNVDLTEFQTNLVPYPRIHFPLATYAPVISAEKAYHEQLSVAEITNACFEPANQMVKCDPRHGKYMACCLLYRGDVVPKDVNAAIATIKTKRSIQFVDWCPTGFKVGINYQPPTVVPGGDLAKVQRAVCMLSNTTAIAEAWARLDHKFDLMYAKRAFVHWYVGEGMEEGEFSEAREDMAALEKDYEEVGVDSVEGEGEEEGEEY

[19] = system: SARS-CoV-2 RNA interacting human proteins; design: ACT_VALUE, ACT_TYPE ID50: unit not given here; conditions: cited from earlier work
[20] = system: heat shock protein 90 alpha family class B member 1 (HSP90AB1); design: method as in earlier work; conditions: ref IUPHAR/BPS Guide to PHARMACOLOGY (geldanamycin pubmed_id 24984936), cited from earlier work; for IC50: read-out: original_affinity_median_nm (IC50)
[21] = biological target: aldehyde dehydrogenase 2 family member (ALDH2); design: method as in IUPHAR/BPS Guide to PHARMACOLOGY, pubmed_id 18613661; conditions: In vitro inhibition of recombinant human mitochondrial aldehyde dehydrogenase, ref IUPHAR/BPS Guide to PHARMACOLOGY, pubmed_id 18613661, cited from earlier work
[22] = system: isocitrate dehydrogenase (NADP(+)) 2 (IDH2); design: method as in IUPHAR/BPS Guide to PHARMACOLOGY, pubmed_id 32071674; conditions: ref IUPHAR/BPS Guide to PHARMACOLOGY, pubmed_id 32071674; cited from earlier work
[23] = read-out: original_affinity_median_nm (Ki)

COc1ccc2cc1Oc1ccc(cc1)C[C@H]1c3c(cc4c(c3Oc3cc5c(cc3OC)CCN(C)[C@@H]5C2)OCO4)CCN1C [Cepharanthine]
Antiviral effect against SARS-CoV-2 in Huh7.5.1 cells (in words) [1]: confirmed
Kd [2]: 3500 nM
Solubility in water [3]: insoluble in water
SI (CC50/IC50), ZIKV [4]: 10.97
IC50 [4]: 2190 nM
CETSA target engagement, HSP90AB1 [5]: targeted HSP90AB1; also recorded: bound to HSP90AB1 in cells
inhibition ratio [6]: > 40%
Viral loads in the lungs vs vehicle group at 3 dpi (qPCR) [7]: no obvious differences
Viral loads in the lungs vs vehicle group at 5 dpi (qPCR) [7]: significant reduction
Expression level of IL6 in lung vs vehicle group ([7]; 10 mg/kg): reduced
Expression level of TNF in lung vs vehicle group ([7]; 10 mg/kg): reduced
Lung injury and inflammation (H&E staining) ([7]; 10 mg/kg): the extent of damage was much relieved in lung tissue
CC50 at 72 h [8]: 24000 nM
IC50 [9]: 1400 nM
selectivity ratio [10]: 18.5
IC50 [11]: 1670 nM
IC50 [12]: 420 nM
SI (CC50/IC50), EBOVΔVP30-GFP [13]: 12.10

COc1cc2c(cc1OC)[C@@H]1C(=O)c3ccc4c(c3O[C@@H]1CO2)C=CC(C)(C)O4 [Deguelin]
CC50 [14]: 34700 nM

CC(C)(O)CNc1nc(Nc2ccnc(C(F)(F)F)c2)nc(-c2cccc(C(F)(F)F)n2)n1 [Enasidenib, 2-Methyl-1-(4-(6-(trifluoromethyl)pyridin-2-yl)-6-(2-(trifluoromethyl)pyridin-4-ylamino)-1,3,5-triazin-2-ylamino)propan-2-ol]
IC50 [4]: 13500 nM
selectivity ratio [10]: 1.17
IC50 [11]: 28000 nM
CC50 [15]: 24900 nM

COP(=O)(CCC(N)C(=O)O)Oc1cccc(CC(=O)O)c1 (stereo not drawn) [GGsTop]
affinity_median (pKi) [16]: 3.77
Ki [16, 23]: 170000 nM

COC(=O)[C@H]1[C@@H](O)[C@@]2(O)c3c(OC)cc(O[C@@H]4O[C@@H]([C@H](O)CO)CO[C@H]4OC)cc3O[C@@]2(c2ccc(OC)cc2)[C@@H]1c1ccccc1 [Silvestrol]
IC50 [4]: 10 nM
IC50 [12]: 20 nM
SI (CC50/IC50), EBOVΔVP30-GFP [13]: 0.50

CNC(=O)c1cc(Oc2ccc(NC(=O)Nc3ccc(Cl)c(C(F)(F)F)c3)cc2)ccn1 [Sorafenib]
CC50 [14]: 12900 nM

CN1CCN(CCCN2c3ccccc3Sc3ccc(C(F)(F)F)cc32)CC1 [Trifluoperazine]
Antiviral effect against SARS-CoV-2 in Huh7.5.1 cells (in words) [1]: confirmed
Architecture of the TUBB cytoskeletal networks (immunofluorescence) [17]: architecture of the TUBB cytoskeletal networks was disrupted
SI (CC50/IC50), ZIKV [4]: 8.11
IC50 [4]: 960 nM
CETSA, thermal stability of TUBB [18]: slightly affected the thermal stability of TUBB
CC50 at 72 h [8]: 7790 nM
selectivity ratio [10]: 10.7
IC50 [11]: 3460 nM
IC50 [12]: 1790 nM
SI (CC50/IC50), EBOVΔVP30-GFP [13]: 2.18

CC(=O)O[C@@]12CO[C@@H]1C[C@H](O)[C@@]1(C)C(=O)[C@H](O)C3=C(C)[C@@H](OC(=O)[C@H](O)[C@@H](NC(=O)OC(C)(C)C)c4ccccc4)C[C@@](O)([C@@H](OC(=O)c4ccccc4)[C@H]21)C3(C)C [docetaxel]
ACT_VALUE, ACT_TYPE ID50 [19]: 6.699

C=C1C[C@@H]2CC[C@@]34C[C@H]5O[C@H]6[C@@H](O3)[C@H]3O[C@H](CC[C@@H]3O[C@H]6[C@H]5O4)CC(=O)C[C@@H]3[C@@H](OC)[C@@H](C[C@H](O)CN)O[C@H]3C[C@H]3O[C@@H](CC[C@@H]1O2)C[C@@H](C)C3=C [eribulin]
ACT_VALUE, ACT_TYPE IC50 [19]: 8.23

COC1=C2C[C@@H](C)C[C@H](OC)[C@H](O)[C@@H](C)/C=C(\C)[C@H](OC(N)=O)[C@@H](OC)/C=C\C=C(/C)C(=O)NC(=CC1=O)C2=O [geldanamycin]
affinity_median (pIC50) [20]: 6.55
IC50 [20]: 282 nM

CCNC(=O)c1noc(-c2cc(C(C)C)c(O)cc2O)c1-c1ccc(CN2CCOCC2)cc1 [luminespib]
affinity_median (pIC50) [20]: 8.7
IC50 [20]: 2 nM

CC(=O)O[C@H]1C(=O)[C@@]2(C)[C@H]([C@H](OC(=O)c3ccccc3)[C@]3(O)C[C@H](OC(=O)[C@H](O)[C@@H](NC(=O)c4ccccc4)c4ccccc4)C(C)=C1C3(C)C)[C@]1(OC(C)=O)CO[C@@H]1C[C@@H]2O [paclitaxel]
ACT_VALUE, ACT_TYPE EC50 [19]: 8.05

COc1cc([C@@H]2c3cc4c(cc3[C@H](O)[C@H]3COC(=O)[C@H]23)OCO4)cc(OC)c1OC [podophyllotoxin]
ACT_VALUE, ACT_TYPE IC50 [19]: 6

COc1cc(O)c2c(=O)c(-c3ccc(O)cc3)coc2c1 [prunetin]
affinity_median (pKi) [21]: 6.35
Ki [21, 23]: 450 nM

CC[C@]1(O)C[C@@H]2CN(CCc3c([nH]c4ccccc34)[C@@](C(=O)OC)(c3cc4c(cc3OC)N(C)[C@H]3[C@@](O)(C(=O)OC)[C@H](OC(C)=O)[C@]5(CC)C=CCN6CC[C@]43[C@@H]65)C2)C1 [vinblastine]
ACT_VALUE, ACT_TYPE IC50 [19]: 9

C[C@@H](Nc1nc(N[C@H](C)C(F)(F)F)nc(-c2cccc(Cl)n2)n1)C(F)(F)F [vorasidenib]
assay_description (result in words) [22]: Inhibits mutant IDH2.
